According to patent EP0643699B1, “6-(2-HYDROXYETHYLAMINOALKYL)-5,11-DIOXO-5,6-DIHYDRO-11H- INDENO[1,2-C]ISOQUINOLINES AND THEIR USE AS ANTINEOPLASTIC AGENTS” (priority 1991, dated 1993):
Read-outs that look alike come from different tables or passages of the source. Marks after values point to notes of the source that are not given here.

Experiments:
Yoshida ascites cells = assay: Cytotoxicity: incorporation of [3H]thymidine and [14C]uridine into trichloroacetic acid-insoluble fraction of cells; format: cell-based, Wistar rats
Source text: The degree of influence on the incorporation of [^3H]thymidine and [^14C]uridine into the fraction of Yoshida ascites cells insoluble in trichloroacetic acid serves as the measure of cytotoxicity.

Sa37 sarcoma = assay: Antitumour activity in S37 ascites sarcoma bearing mice (tumour weight, total ascitocrit, survival); format: in vivo, mice H; conditions: for mean value of the tumour weight in comparison with the untreated control group / mean value of tumour cell fraction in ascites fluid (total ascitocrit) in comparison with the untreated control group: eight daily doses; for Survival time (T/C, %) / Total ascitocrit (T/C, %) / Tumour weight (T/C, %): administered in four days
Source text: (§1) The antineoplastic activity of the compounds of the invention has been investigated testing the compounds of the chemical group "in vivo" against experimental rodent tumors such as the solid form of Ehrlich tumour (STE, originally mammary adenocarcinoma), tumor HK (also transplantable originally mammary adenocarcinoma), Krebs' ascites tumour (Kr2), S37 ascites sarcoma, Nemeth-Keller lymphoma (NK), all maintained in mice H, Gardner lymphosarcoma (LsG, maintained in mice C3H), P388 and/or L1210 leukemia (maintained in DBA2 mice), B16 metastasizing melanocarcinoma (maintained in C57B1/6 mice) and Yoshida ascites reticulosarcoma (Y, maintained in Wistar rats) in experiments according to Jelinek, V. [Neoplasma 12, 469 (1965); ibid 7, 146 (1960)] and in "in vitro" experiments using radioactive precursors of nucleic acids and proteins according to Miko, M. et al. [Cancer Res 39, 4242 (1979); Neoplasma 26, 449 (1979); ibid 16, 161 (1969)] with minor modifications [Mattern, J.: Studies on the Drug Sensitivity of Short Term Cultured Tumour Cell Suspensions. In "Human Tumours in Short Term Culture" (Dendy, P.P. ed.), p.301, Academic Press 1976]. The Cox's proportional-hazards model was used for survival evaluation and optimal dose calculation according to Carter, V.H. et al. [cf Cancer Res. 42, 2963 (1982)].
Eighty female mice H weighing approximately 20 g were divided into four groups: one control group and three experimental groups of 20 animal each. A lethal dose of the Sa37 sarcoma ascitic fluid was implanted intraperitoneally to all the animals. The animals of test groups were treated using the compound suspended in water. The suspension contained the substance in such a concentration that dose 0.6, 0.4 and/or 0.2ml of the suspension p.o. was equal to dose 240, 160 and/or 80 mg/kg p.o., respectively. The drug was administered to the experimental animals once, a day after tumour transplantation. On the tenth day after the tumour transplantation, half of the animals in each group were killed by ether anaesthesia, ascites were emptied after laparotomia and the tumour weight was assessed in all animals from the weight difference before and after laparotomia and ascites removing. In ascites fluid the volume of tumour cell fraction was determined. The remaining animals were left to monitor the time of death and survival time was followed. […] It was also observed that the treated animals survived longer than untreated control animals. […] The results of the experiment are summarized in the following table: Antitumour activity of 6-[2-(2-hydroxyethyl)aminoethyl]5,11-dioxo-5,6-dihydro-11H-indeno[1,2-c]isoquinoline (the substance I, X=2) in S37 sarcoma bearing mice.
In an analogous experiment carried out on the animals with implanted Sa37 sarcoma the substance I (X=2) was administered in seven daily doses, and the substance I (X=3) in four days. The results of the experiment are summarized in the following table: Antitumour activity of 6-[2-(2-hydroxyethyl)aminoethyl]5,11-dioxo-5,6-dihydro-11H-indeno[1,2-c]isoquinoline (the substance I, X=2) and 6-[3-(2-hydroxyethyl)aminopropyl]5,11-dioxo-5,6-dihydro-11H-indeno[1,2-c]isoquinoline (the substance I, X=3) in S37 bearing mice.
In an experiment carried out on the animals with implanted Sa37 sarcoma the substance I (X=0) was administered in eight daily doses (analogously as in example 6).

Ehrlich tumour = assay: Antitumour activity against solid form of Ehrlich tumour in mice (tumour weight, survival); format: in vivo, mice H
Source text: as §1
Sixty female mice H weighing approximately 20 g were divided into three groups: one control group and two experimental groups of 20 animal each. A lethal dose of the 40 Ehrlich tumour homogenate was implanted subcutaneously to all the animals. The animals of test groups were treated using the compounds suspended in water. […] On the fourteenth day after the tumour transplantation, half of the animals in each group were killed by ether anaesthesia, tumours were removed and weighed. The remaining animals were left to monitor the time of death and survival time was followed. […] It was also observed that the treated animals survived longer than untreated control animals.

leukemia P388 = assay: Survival of mice with leukemia P388 after intravenous administration; format: in vivo; conditions: mice DBA2 with leukemia P388
Source text: as §1, with “(1982)]. […]” for “(1982)].”

COc1cccc2c1C(=O)c1c(O)c3c(c(O)c1C2=O)C[C@@](O)(C(=O)CO)C[C@@H]3O[C@H]1C[C@H](N)[C@H](O)[C@H](C)O1 [DOXORUBICIN]
IC50 (Yoshida ascites cells; Rattus norvegicus, YOSHIDA, Precursor [6-3H]Thymidine): 16 µM | IC50 (Yoshida ascites cells; Rattus norvegicus, YOSHIDA, Precursor [Uracil-U-14C]uridine): 8 µM

O=C1c2ccccc2-c2c1c1ccccc1c(=O)n2NCCO [I (X=0), 6-[(2-hydroxyethyl)amino]-5,11-dioxo-5,6-dihydro-11H-indeno[1,2-c]isoquinoline]
mean value of the tumour weight in comparison with the untreated control group (Sa37 sarcoma; 20 mg/kg s.c.): 68% | mean value of tumour cell fraction in ascites fluid (total ascitocrit) in comparison with the untreated control group (Sa37 sarcoma; 20 mg/kg s.c.): 71% | mean value of the tumour weight in comparison with the untreated control group (Sa37 sarcoma; 50 mg/kg p.o.): 60% | mean value of tumour cell fraction in ascites fluid (total ascitocrit) in comparison with the untreated control group (Sa37 sarcoma; 50 mg/kg p.o.): 68% | mean tumour weight lowered by (Ehrlich tumour; 50 mg/kg p.o. x 8, starting on the first day after tumour transplantation): 13% | Mean survival time in comparison with the untreated control group (Ehrlich tumour; eight daily doses of 25 mg/kg p.o.): 115% | mean tumour weight in the treated animals in comparison with the untreated control group (Ehrlich tumour; single dose of 100 mg/kg p.o.): 72%

Cl.O=C1c2ccccc2-c2c1c1ccccc1c(=O)n2CCNCCO [I (X=2) Hydrochloride, 6-[2-(2-hydroxyethyl)aminoethyl]-5,11-dioxo-5,6-dihydro-11H-indeno[1,2-c]isoquinoline hydrochloride]
IC50 (Yoshida ascites cells; Rattus norvegicus, YOSHIDA, Precursor [6-3H]Thymidine, read-out: IC 50): 5 µM | IC50 (Yoshida ascites cells; Rattus norvegicus, YOSHIDA, Precursor [Uracil-U-14C]uridine, read-out: IC 50): 7 µM | survival (leukemia P388): highly significant increase of survival

O=C1c2ccccc2-c2c1c1ccccc1c(=O)n2CCCNCCO [I (X=3), 6-[3-(2-hydroxyethyl)aminopropyl]-5,11-dioxo-5,6-dihydro-11H-indeno[1,2-c]isoquinoline]
Survival time (T/C, %) (Sa37 sarcoma; 10 mg/kg p.o.): 119% | Total ascitocrit (T/C, %) (Sa37 sarcoma; 10 mg/kg p.o.): 80^a) % | Tumour weight (T/C, %) (Sa37 sarcoma; 10 mg/kg p.o.): 70^b) % | Survival time (T/C, %) (Sa37 sarcoma; 20 mg/kg p.o.): 99% | Total ascitocrit (T/C, %) (Sa37 sarcoma; 20 mg/kg p.o.): 62^c) % | Tumour weight (T/C, %) (Sa37 sarcoma; 20 mg/kg p.o.): 56^c) % | Total ascitocrit (T/C, %) (Sa37 sarcoma; 30 mg/kg p.o.): 43^b) % | Tumour weight (T/C, %) (Sa37 sarcoma; 30 mg/kg p.o.): 35^b) % | Survival time (T/C, %) (Sa37 sarcoma; 30 mg/kg p.o., tox - toxic dose): tox

MITOXANTRON
IC50 (Yoshida ascites cells; Precursor [6-3H]Thymidine, read-out: IC 50): 25 µM | IC50 (Yoshida ascites cells; Precursor [Uracil-U-14C]uridine, read-out: IC 50): 23 µM
